Reference: patent publication EP4678638A1, “NEW E3 UBIQUITIN LIGASE LIGAND, PROTEIN DEGRADATION AGENT AND USE THEREOF” (priority 2023, dated 2024)

Tests used:
[1] = target: T1, RSK1 (Homo sapiens, UniProt Q15418); experiment: Western blot degradation of RSK1 (hPBMC); assay type: cell-based; settings: Table D8
T1 construct: evaluate the effects of the compounds of the present disclosure on the expression of target proteins in cells; endogenous in cells; host or cells: hPBMC
Protocol: (§1) Conventional Western blot assay was performed to evaluate the effects of the compounds of the present disclosure on the expression of target proteins in cells.
(§2) (1) Cell Seeding and Protein Harvesting: The selected cells were processed according to the cell seeding procedure and protein harvesting procedure in Table III-2. Table III-2 Cell Seeding and Protein Harvesting Procedures
(§3) (2) To the collected supernatant, 5X SDS sample loading buffer was added, followed by denaturation at 95°C for 5 minutes. The denatured samples were then separated by SDS-PAGE electrophoresis on a polyacrylamide gel. Proteins were transferred to a nitrocellulose membrane (0.45 µm NC membrane), blocked with blocking buffer at room temperature for 1 hour, and subjected to antibody incubation and development procedures according to the antibody manufacturer's instructions (Cell Signaling Technology).
(§4) Half-Maximal Degradation Concentration value (the drug concentration required for degrading proteins by 50%, abbreviated as DC50) reads method: comparing the grayscale values of Western blot bands from drug-treated samples with those from blank DMSO-treated controls, and identifying the drug concentration range at which the grayscale value is half that of the DMSO-treated control bands.
(§5) DC50 values can be calculated using ImageJ software to measure grayscale values of Western blot bands from drug-treated samples. The concentration-response curve is fitted to estimate the drug concentration corresponding to half the grayscale value.
(§6) Target protein remaining (%) refers to the percentage of target protein remaining in hPBMC cells after treatment with protein degrader compounds.
(§7) Calculation method for target protein remaining (%): Use ImageJ software to measure grayscale values of Western blot bands from drug (protein degrader)-treated samples. The grayscale value of drug-treated bands is divided by that of internal control protein bands, and the resulting quotient is normalized to obtain the relative percentage of remaining target protein after protein degrader treatment.
(§8) Target protein degradation rate (%) = 100% - target protein remaining (%).

[2] = target: T2, RSK2 (Homo sapiens, UniProt P51812); experiment: Western blot degradation of RSK2 (hPBMC); assay type: cell-based; settings: Table D8
T2 construct: evaluate the effects of the compounds of the present disclosure on the expression of target proteins in cells; endogenous in cells; host or cells: hPBMC
Protocol: as §1, §2, §3, §4, §5, §6, §7, §8

T2 sequence (P51812 whole entry): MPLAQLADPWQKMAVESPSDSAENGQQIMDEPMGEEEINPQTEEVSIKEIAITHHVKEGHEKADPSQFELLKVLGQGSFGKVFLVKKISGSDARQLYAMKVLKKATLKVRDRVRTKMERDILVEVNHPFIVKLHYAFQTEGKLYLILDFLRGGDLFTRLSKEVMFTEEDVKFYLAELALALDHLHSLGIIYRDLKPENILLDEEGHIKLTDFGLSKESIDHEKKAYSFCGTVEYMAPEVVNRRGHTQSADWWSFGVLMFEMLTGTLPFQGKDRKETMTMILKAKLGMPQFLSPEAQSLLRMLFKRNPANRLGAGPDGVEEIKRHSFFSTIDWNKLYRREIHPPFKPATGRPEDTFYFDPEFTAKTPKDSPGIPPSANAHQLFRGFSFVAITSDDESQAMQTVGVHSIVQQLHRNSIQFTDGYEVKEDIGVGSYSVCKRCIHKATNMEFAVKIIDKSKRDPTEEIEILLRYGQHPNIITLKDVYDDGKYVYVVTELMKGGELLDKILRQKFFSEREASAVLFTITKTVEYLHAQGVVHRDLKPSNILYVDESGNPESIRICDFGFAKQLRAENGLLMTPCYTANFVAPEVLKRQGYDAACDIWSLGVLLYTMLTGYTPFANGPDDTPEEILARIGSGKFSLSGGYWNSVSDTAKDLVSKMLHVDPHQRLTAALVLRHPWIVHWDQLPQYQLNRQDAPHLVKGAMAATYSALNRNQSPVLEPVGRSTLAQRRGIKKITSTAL
T1 sequence (Q15418 whole entry): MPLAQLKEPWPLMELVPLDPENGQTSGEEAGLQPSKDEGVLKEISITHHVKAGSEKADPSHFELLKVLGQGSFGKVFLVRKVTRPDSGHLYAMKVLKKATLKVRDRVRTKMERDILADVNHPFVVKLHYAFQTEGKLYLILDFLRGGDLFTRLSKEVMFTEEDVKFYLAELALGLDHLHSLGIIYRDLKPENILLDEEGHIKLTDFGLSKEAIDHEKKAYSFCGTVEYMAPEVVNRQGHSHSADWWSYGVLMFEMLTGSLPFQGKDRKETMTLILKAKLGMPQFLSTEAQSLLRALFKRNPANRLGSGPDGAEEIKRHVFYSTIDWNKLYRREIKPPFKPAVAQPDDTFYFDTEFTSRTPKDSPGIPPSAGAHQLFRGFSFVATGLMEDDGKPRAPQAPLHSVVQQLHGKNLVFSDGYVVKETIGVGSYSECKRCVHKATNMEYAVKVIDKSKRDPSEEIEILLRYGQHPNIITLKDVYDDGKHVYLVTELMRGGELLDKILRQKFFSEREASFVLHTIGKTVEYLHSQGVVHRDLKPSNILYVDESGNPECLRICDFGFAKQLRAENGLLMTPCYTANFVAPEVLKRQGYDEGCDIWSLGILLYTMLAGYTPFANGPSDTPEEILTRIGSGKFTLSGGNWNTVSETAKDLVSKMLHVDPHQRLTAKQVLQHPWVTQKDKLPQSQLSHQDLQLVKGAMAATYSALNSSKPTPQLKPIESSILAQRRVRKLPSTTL

Row | Structure (SMILES) | Degradation of substrate protein RSK1 (substrate protein remaining %) [1] | Degradation of substrate protein RSK2 (substrate protein remaining %) [2]
1 | C[C@@H]1CNC(=O)c2cc3ccc(C(=O)Nc4cnn(Cc5ccc(N6CCC(N(C)Cc7ccnc(C8CCC(=O)NC8=O)c7)CC6)cc5)c4)nc3n21 (stereo partly drawn) [GT-07947, (9R)-N-(1-(4-(4-(((2-(2,6-dioxopiperidin-3-yl)pyridin-4-yl)methyl)(methyl)amino)piperidin-1-yl)benzyl)-1H-pyrazol-4-yl)-9-methyl-6-oxo-6,7,8,9-tetrahydropyrido[3',2':4,5]py rrolo[1,2-a]pyrazine-2-carboxamide] | A (A is defined as 0% ≤ substrate protein remaining % ≤ 80%) | A (A is defined as 0% ≤ substrate protein remaining % ≤ 80%)
2 | C[C@@H]1CNC(=O)c2cc3ccc(C(=O)Nc4cnn(Cc5ccc(N6CCC(N7CCN(Cc8cc(N9CCC(=O)NC9=O)ncc8F)CC7)CC6)cc5)c4)nc3n21 [GT-07957, (R)-N-(1-(4-(4-(4-((2-(2,4-dioxotetrahydropyrimidin-1(2H)-yl)-5-fluoropyridin-4-yl)methyl)piperazin-1-yl)piperidin-1-yl)benzyl)-1H-pyrazol-4-yl)-9-methyl-6-oxo-6,7,8,9-tetrahydropyrido[3',2':4,5]pyrrolo[1,2-a]pyrazine-2-carboxamide] | A (A is defined as 0% ≤ substrate protein remaining % ≤ 80%) | A (A is defined as 0% ≤ substrate protein remaining % ≤ 80%)
3 | C[C@@H]1CNC(=O)c2cc3ccc(C(=O)Nc4cnn(Cc5ccc(N6CCN(Cc7cc(N8CCC(=O)NC8=O)cnc7F)CC6)cc5)c4)nc3n21 [GT-07935, (R)-N-(1-(4-(4-((5-(2,4-dioxotetrahydropyrimidin-1(2H)-yl)-2-fluoropyridin-3-yl)methyl)piperazin-1-yl)benzyl)-1H-pyrazol-4-yl)-9-methyl-6-oxo-6,7,8,9-tetrahydropyrido[3',2':4,5]py rrolo[1,2-a]pyrazine-2-carboxamide] | A (A is defined as 0% ≤ substrate protein remaining % ≤ 80%) | B (B is defined as substrate protein remaining % > 80%)
4 | C[C@@H]1CNC(=O)c2cc3ccc(C(=O)Nc4cnn(Cc5ccc(N6CCC(N(C)Cc7cncc(N8CCC(=O)NC8=O)c7)CC6)cc5)c4)nc3n21 [GT-07945, (R)-N-(1-(4-(4-(((5-(2,4-dioxotetrahydropyrimidin-1(2H)-yl)pyridin-3-yl)methyl)(methyl)amino)piperidin-1-yl)benzyl)-1H-pyrazol-4-yl)-9-methyl-6-oxo-6,7,8,9-tetrahydropyrido[3',2':4,5]py rrolo[1,2-a]pyrazine-2-carboxamide] | A (A is defined as 0% ≤ substrate protein remaining % ≤ 80%) | A (A is defined as 0% ≤ substrate protein remaining % ≤ 80%)
5 | C[C@@H]1CNC(=O)c2cc3ccc(C(=O)Nc4cnn(Cc5ccc(N6CCN(Cc7ccc(N8CCC(=O)NC8=O)cn7)CC6)cc5)c4)nc3n21 [GT-07929, (R)-N-(1-(4-(4-((5-(2,4-dioxotetrahydropyrimidin-1(2H)-yl)pyridin-2-yl)methyl)piperazin-1-yl)benzyl)-1H-pyrazol-4-yl)-9-methyl-6-oxo-6,7,8,9-tetrahydropyrido[3',2':4,5]py rrolo[1,2-a]pyrazine-2-carboxamide] | A (A is defined as 0% ≤ substrate protein remaining % ≤ 80%) | B (B is defined as substrate protein remaining % > 80%)
